# Key:
# [1] = target: T1, wild type HCV NS3/4A 1b protease enzyme (Hepatitis C virus genotype 1b, UniProt P26663); assay: HCV Protease FRET Assay (IC50_APP), wild type; assay type: biochemical; conditions: read-out: IC50_APP, WT; apparent IC50, wild type NS3/4A 1b
# T1 construct: 10× stocks of NS3/4A protease enzyme from Bioenza (Mountain View, Calif.); purchased Bioenza (Mountain View, Calif.)
# Method: (§1) HCV Protease FRET Assay for WT and Mutated NS3/4A 1b Enzymes (IC50—APP).
# (§2) The following protocol was used to generate “apparent” IC50 (IC50—APP) values as depicted in Table 6, below. […] 5 μL of each enzyme were added to Corning (#3575) 384-well, black, microtiter plates (Corning, N.Y.) after spotting a 0.5 μL volume of 50% DMSO and serially diluted compounds prepared in 50% DMSO. Protease reactions were immediately started after enzyme addition with the addition of 45 μL of the FRET substrate and monitored for 60-90 minutes at λex485/λem520 in a Synergy^4 plate reader from BioTek (Winooski, Vt.). At the conclusion of each assay, progress curves from each well were examined for linear reaction kinetics and fit statistics (R^2, 95% confidence intervals, absolute sum of squares).
# (§3) The compound numbers correspond to the compound numbers in Table 3. […] ;
# [2] = target: T2, D168A mutant of the HCV NS3/4A 1b protease enzyme (Hepatitis C virus genotype 1b, UniProt P26663, D1194A); assay: HCV Protease FRET Assay (IC50_APP), D168A mutant; assay type: biochemical; conditions: apparent IC50, D168A mutant; read-out: IC50_APP, HCV D168A
# T2 construct: 10× stocks of NS3/4A protease enzyme from Bioenza (Mountain View, Calif.); purchased Bioenza (Mountain View, Calif.)
# Method: as §1, §2, §3
# [3] = target: T3, A156T mutant of the HCV NS3/4A 1b protease enzyme (Hepatitis C virus genotype 1b, UniProt P26663, A1182T); assay: HCV Protease FRET Assay (IC50_APP), A156T mutant; assay type: biochemical; conditions: apparent IC50, A156T mutant; read-out: IC50_APP, HCV A156T
# T3 construct: 10× stocks of NS3/4A protease enzyme from Bioenza (Mountain View, Calif.); purchased Bioenza (Mountain View, Calif.)
# Method: as §1, §2, §3
# [4] = tested on: HCV RNA replicon in cell line ET (luc-ubi-neo/ET), human Huh7 hepatoma; assay: Method A: HCV RNA replicon antiviral assay (luciferase, ET cell line); assay type: cell-based, Hepatitis C virus; conditions: Hepatitis C virus, Huh-7, assay described in Example 22; for IC50: read-out: Replicon (IC50)
# Method: The compounds were assayed to evaluate the antiviral activity and cytotoxicity of compounds in vitro using HCV RNA replicons. This assay used the cell line ET (luc-ubi-neo/ET), which is a human Huh7 hepatoma cell line that contains an HCV RNA replicon with a stable luciferase (Luc) reporter and three cell culture-adaptive mutations. […]
# The ET cell line was grown in Dulbecco's modified essential media (DMEM), 10% fetal bovine serum (FBS), 1% penicillin-streptomycin (pen-strep), 1% glutamine, 250 μg/ml G418 in a 5% CO2 incubator at 37° C. All cell culture reagents were obtained from Mediatech (Manassas, Va.). Cells were trypsinized (1% trypsin:EDTA) and plated out at 5×10^3 cells/well in white 96-well assay plates (Costar) dedicated to cell number (cytotoxicity) or antiviral activity assessments. Drugs were added at six 3-fold concentrations each and the assay was run in DMEM, 5% FBS, 1% pen-strep, 1% glutamine. Human interferon alpha-2b (PBL Biolabs, New Brunswick, N.J.) was included in each run as a positive control compound. Cells were processed 72 hr post drug addition when the cells are still subconfluent. Antiviral activity was measured by analyzing replicon-derived luciferase activity using the Steady-Glo Luciferase Assay System (Promega, Madison, Wis.) according to manufacturer's instruction. The number of cells in each well was determined by CytoTox-1 reagent (Promega). Compound profile was derived by calculating applicable EC50 (effective concentration inhibiting virus replication by 50%), EC90 (effective concentration inhibiting virus replication by 90%), IC50 (concentration decreasing cell viability by 50%) and SI50 (selective index: […]) values.
smiles,measurement,setting,value
"C=C[C@@H]1C[C@]1(NC(=O)[C@@H]1C[C@@H](Oc2cc(-c3ccccc3)nc3cc(OC)ccc23)CN1C(=O)C(CN(C)C(=O)C#CC)NC(=O)OC(C)(C)C)C(=O)NS(=O)(=O)c1ccccc1 (stereo in doubt) [Compound I-51, tert-butyl-(S)-1-((2S,4R)-4-(7-methoxy-2-phenylquinolin-4-yloxy)-2-((1R,2S)-1-(phenylsulfonylcarbamoyl)-2-vinylcyclopropylcarbamoyl)pyrrolidin-1-yl)-3-(N-methylbut-2-ynamido)-1-oxopropan-2-ylcarbamate]",IC50,[1],0.01 to 0.1 µM
same,IC50,[2],1 to 10 µM
"C=C[C@@H]1C[C@]1(NC(=O)[C@@H]1C[C@@H](Oc2cc(-c3ccccc3)nc3cc(OC)ccc23)CN1C(=O)C(CN(C)C(=O)C(=C)C(F)(F)F)NC(=O)OC(C)(C)C)C(=O)NS(=O)(=O)c1ccccc1 (stereo in doubt) [Compound I-53, tert-butyl-(S)-1-((2S,4R)-4-(7-methoxy-2-phenylquinolin-4-yloxy)-2-((1R,2S)-1-(phenylsulfonylcarbamoyl)-2-vinylcyclopropylcarbamoyl)pyrrolidin-1-yl)-3-(N-methyl-2-(trifluoromethyl)acrylamido)-1-oxopropan-2-ylcarbamate]",IC50,[1],< 0.01 µM
same,IC50,[3],0.01 to 0.1 µM
same,IC90,[4],> 10 µM
same,IC50,[4],0.1 to 1 µM
same,IC50,[2],0.1 to 1 µM
"C=CC(=O)N(C)C[C@H](NC(=O)OC(C)(C)C)C(=O)N1C[C@H](Oc2cc(-c3ccccc3)nc3cc(OC)ccc23)C[C@H]1C(=O)N[C@]1(C(=O)NS(=O)(=O)C2CC2)C[C@H]1C=C [Compound I-52, tert-butyl-(S)-1-((2S,4R)-2-((1R,2S)-1-(cyclopropylsulfonylcarbamoyl)-2-vinylcyclopropylcarbamoyl)-4-(7-methoxy-2-phenylquinolin-4-yloxy)pyrrolidin-1-yl)-3-(N-methylacrylamido)-1-oxopropan-2-ylcarbamate]",IC50,[1],< 0.01 µM
same,IC50,[3],0.1 to 1 µM
same,IC90,[4],< 0.01 µM
same,IC50,[4],< 0.01 µM
same,IC50,[2],1 to 10 µM
"C=CC(=O)NC[C@H](NC(=O)OC1CCCC1)C(=O)N1C[C@H](Oc2cc(-c3ccccc3)nc3cc(OC)ccc23)C[C@H]1C(=O)N[C@]1(C(=O)NS(=O)(=O)C2CC2)C[C@H]1C=C [Compound I-55, Cyclopentyl-(S)-3-acrylamido-1-((2S,4R)-2-((1R,2S)-1-(cyclopropylsulfonylcarbamoyl)-2-vinylcyclopropylcarbamoyl)-4-(7-methoxy-2-phenylquinolin-4-yloxy)pyrrolidin-1-yl)-1-oxopropan-2-ylcarbamate]",IC50,[1],< 0.01 µM
same,IC50,[3],0.1 to 1 µM
same,IC90,[4],0.1 to 1 µM
same,IC50,[4],< 0.01 µM
same,IC50,[2],0.1 to 1 µM
"C=CC(=O)N[C@@H](C(=O)N1C[C@H](Oc2cc(-c3ccccc3)nc3cc(OC)ccc23)C[C@H]1C(=O)N[C@]1(C(=O)NS(=O)(=O)C2CC2)C[C@H]1C=C)C(C)C [Compound I-56, (2S,4R)-1-((R)-2-acrylamido-3-methylbutanoyl)-N-((1R,2S)-1-(cyclopropylsulfonylcarbamoyl)-2-vinylcyclopropyl)-4-(7-methoxy-2-phenylquinolin-4-yloxy)pyrrolidine-2-carboxamide]",IC50,[1],< 0.01 µM
same,IC50,[3],0.01 to 0.1 µM
same,IC90,[4],0.01 to 0.1 µM
same,IC50,[4],< 0.01 µM
same,IC50,[2],0.1 to 1 µM
"C=C[C@@H]1C[C@]1(NC(=O)[C@@H]1C[C@@H](Oc2cc(-c3ccccc3)nc3cc(OC)ccc23)CN1C(=O)CNC(=O)/C=C/C)C(=O)NS(=O)(=O)C1CC1 [Compound I-57, (2S,4R)-1-(2-(E)-but-2-enamidoacetyl)-N-((1R,2S)-1-(cyclopropylsulfonylcarbamoyl)-2-vinylcyclopropyl)-4-(7-methoxy-2-phenylquinolin-4-yloxy)pyrrolidine-2-carboxamide]",IC50,[1],0.1 to 1 µM
same,IC50,[2],1 to 10 µM
"C=CC(=O)N(C)C[C@H](NC(=O)c1cnccn1)C(=O)N1C[C@H](Oc2cc(-c3ccccc3)nc3cc(OC)ccc23)C[C@H]1C(=O)N[C@]1(C(=O)NS(=O)(=O)C2CC2)C[C@H]1C=C [Compound I-58, (S)—N-3-(N-methyl)acrylamido-1-((2S,4R)-2-((1R,2S)-1-(cyclopropylsulfonylcarbamoyl)-2-vinylcyclopropylcarbamoyl)-4-(7-methoxy-2-phenylquinolin-4-yloxy)pyrrolidin-1-yl)-1-oxo-2-propylpyrazinecarboxamide]",IC50,[1],0.01 to 0.1 µM
same,IC50,[3],1 to 10 µM
same,IC90,[4],1 to 10 µM
same,IC50,[4],0.1 to 1 µM
same,IC50,[2],1 to 10 µM
"C=C[C@@H]1C[C@]1(NC(=O)[C@@H]1C[C@@H](Oc2cc(-c3ccccc3)nc3cc(OC)ccc23)CN1C(=O)[C@H](Cc1ccc(F)c([N+](=O)[O-])c1)NC(=O)OC(C)(C)C)C(=O)NS(=O)(=O)c1ccccc1 [Compound I-59, tert-butyl-(S)-1-((2S,4R)-4-(7-methoxy-2-phenylquinolin-4-yloxy)-2-((1R,2S)-1-(phenylsulfonylcarbamoyl)-2-vinylcyclopropylcarbamoyl)pyrrolidin-1-yl)-3-(4-fluoro-3-nitrophenyl)-1-oxopropan-2-ylcarbamate]",IC50,[1],< 0.01 µM
same,IC50,[3],1 to 10 µM
same,IC90,[4],1 to 10 µM
same,IC50,[4],0.1 to 1 µM
same,IC50,[2],1 to 10 µM
"C=CC(=O)N[C@H](C(=O)N1C[C@H](Oc2cc(-c3ccccc3)nc3cc(OC)ccc23)C[C@H]1C(=O)N[C@]1(C(=O)NS(=O)(=O)c2ccccc2)C[C@H]1C=C)C(C)C [Compound I-60, (2S,4R)-1-((S)-2-acrylamido-3-methylbutanoyl)-N-((1R,2S)-1-(phenylylsulfonylcarbamoyl)-2-vinylcyclopropyl)-4-(7-methoxy-2-phenylquinolin-4-yloxy)pyrrolidine-2-carboxamide]",IC50,[1],0.01 to 0.1 µM
same,IC50,[3],0.1 to 1 µM
same,IC90,[4],0.1 to 1 µM
same,IC50,[4],0.01 to 0.1 µM
same,IC50,[2],1 to 10 µM
"C=C[C@@H]1C[C@]1(NC(=O)[C@@H]1C[C@@H](Oc2cc(-c3ccccc3)nc3cc(OC)ccc23)CN1C(=O)CNC(=O)c1ccc([N+](=O)[O-])cc1F)C(=O)NS(=O)(=O)c1ccccc1 [Compound I-63, (2S,4R)-1-(2-fluoro-4-nitrobenzamidoacetyl)-N-((1R,2S)-1-(phenylsulfonylcarbamoyl)-2-vinylcyclopropyl)-4-(7-methoxy-2-phenylquinolin-4-yloxy)pyrrolidine-2-carboxamide]",IC50,[1],0.1 to 1 µM
same,IC50,[3],1 to 10 µM
same,IC50,[2],1 to 10 µM
"C=CC(=O)N[C@@H](C(=O)N1C[C@H](Oc2cc(-c3ccccc3)nc3cc(OC)ccc23)C[C@H]1C(=O)N[C@]1(C(=O)NS(=O)(=O)C2CC2)C[C@H]1C=C)C(C)(C)C [Compound I-65, (2S,4R)-1-((R)-2-acrylamido-3,3-dimethylbutanoyl)-N-((1R,2S)-1-(cyclopropylsulfonylcarbamoyl)-2-vinylcyclopropyl)-4-(7-methoxy-2-phenylquinolin-4-yloxy)pyrrolidine-2-carboxamide]",IC50,[1],0.1 to 1 µM
same,IC50,[3],1 to 10 µM
same,IC50,[2],1 to 10 µM
"C=C[C@@H]1C[C@]1(NC(=O)[C@@H]1C[C@@H](Oc2cc(-c3ccccc3)nc3cc(OC)ccc23)CN1C(=O)[C@H](CCC(=O)N[C@H]1COC1=O)NC(=O)OC(C)(C)C)C(=O)NS(=O)(=O)C1CC1 [Compound I-69, t-butyl-(2S)-1-((2S,4R)-2-((1R,2S)-1-(cyclopropylsulfonylcarbamoyl)-2-vinylcyclopropylcarbamoyl)-4-(7-methoxy-2-phenylquinolin-4-yloxy)pyrrolidin-1-yl)-5-((3S)-2-oxooxetan-3-ylamino)-1,5-dioxopentan-2-ylcarbamate]",IC50,[1],< 0.01 µM
same,IC50,[3],0.1 to 1 µM
same,IC50,[2],0.1 to 1 µM

# From patent publication US8309685B2 (Celgene Avilomics Research, Inc., priority 2007, dated 2012)
